Data: patent US20220169654A1, “New Organic Compounds” (Servier Pharmaceuticals LLC, priority 2020, published 2022)

These compounds were tested against T1, MAT2A homodimer (Homo sapiens, UniProt P31153) (assay: MAT2A inhibition (biochemical, liberated phosphate, PiColorLock Gold)). Conditions: recombinant MAT2A homodimer; IC50 bin with Max Inh.; read-out: Enzyme Inhibition Bin.
T1 construct: inferred from Ni sepharose purification with imidazole elution; made in house; host or cells: Sf9 insect cells, baculovirus (Bac to Bac, pFASTBAC1)
T1 sequence (P31153 whole entry): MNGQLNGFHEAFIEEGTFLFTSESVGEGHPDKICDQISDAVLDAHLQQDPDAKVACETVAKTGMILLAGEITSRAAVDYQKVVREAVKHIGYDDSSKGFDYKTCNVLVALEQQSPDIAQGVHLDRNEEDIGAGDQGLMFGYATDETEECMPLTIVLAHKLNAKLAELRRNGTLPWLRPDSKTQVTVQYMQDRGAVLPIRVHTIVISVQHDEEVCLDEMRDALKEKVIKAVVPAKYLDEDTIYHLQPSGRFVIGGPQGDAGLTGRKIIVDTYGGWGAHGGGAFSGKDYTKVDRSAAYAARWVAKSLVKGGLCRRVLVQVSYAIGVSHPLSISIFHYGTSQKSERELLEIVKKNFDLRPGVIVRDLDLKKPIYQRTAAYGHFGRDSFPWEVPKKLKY
Experimental: Mat2A protein was expressed by recombinant baculovirus in SF9 infected cells using the Bac to Bac system cloned into the pFASTBAC1 vector (Invitrogen, Carlsbad, Calif.). Recombinant MAT2A was isolated from the cell lysate of 150 g of infected cells using HP Ni sepharose column chromatography. Recombinant MAT2A homodimer was eluted with 250 and 500 mM imidazole, and fractions containing MAT2A were identified by sodium dodecyl sulfate polyacrylamide gel electrophoresis and pooled.
For determination of the inhibitory potency of compounds against the MAT2A homodimer, protein was diluted to 4 μg/mL in assay buffer (50 mM Tris, pH 8.0, 50 mM KCl, 15 mM MgCl2, 0.3 mM EDTA, 0.005% [w/v] bovine serum albumin [BSA]). Test compound was prepared in 100% dimethyl sulfoxide (DMSO) at 50× the desired final concentration. A 1 μL volume of compound dilution was added to 40 μL of enzyme dilution and the mixture was allowed to equilibrate for 60 minutes at 25° C. The enzymatic assay was initiated by the addition of 10 μL of substrate mix (500 μM ATP, pH 7.0, 400 μM L-methionine in 1× assay buffer), and the mixture was incubated for a further 60 minutes at 25° C. The reaction was halted and the liberated phosphate released by the enzyme in stoichiometric amounts by the production of S-adenosyl methionine (SAM) was measured using the PiColorLock Gold kit (Innova Biosciences, UK). Absolute product amounts were determined by comparison to a standard curve of potassium phosphate buffer, pH 8.0. The compounds were also tested in a secondary assay utilizing 1 μg/mL MAT2A and incubated for 5 hours at 25° C. before halting and processing as above.
Specific compounds disclosed herein were tested in the foregoing assay and they were determined to inhibit MAT2A with an IC50. See, Table 1 below.

SMILES | IC50
CNS(=O)(=O)c1cn(CC2CC2)c2c(-c3ccc(C)nc3)c(=O)n(-c3ccc4nn(C)cc4c3)nc12 [Example 182, 5-(cyclopropylmethyl)-N-methyl-2-(2-methyl-2H-indazol-5-yl)-4-(6-methylpyridin-3-yl)-3-oxo-3,5-dihydro-2H-pyrrolo[3,2-c]pyridazine-7-sulfonamide] | > 10 µM
CN(C)C(=O)c1cn(CC2CC2)c2c(-c3ccc(C4CC4)nc3)c(=O)n(-c3ccc4nn(C)cc4c3)nc12 [Example 164, 5-(cyclopropylmethyl)-4-(6-cyclopropylpyridin-3-yl)-N,N-dimethyl-2-(2-methyl-2H-indazol-5-yl)-3-oxo-3,5-dihydro-2H-pyrrolo[3,2-c]pyridazine-7-carboxamide] | < 1 µM
CNS(=O)(=O)c1cn(CC2CC2)c2c(-c3ccc(C4CC4)nc3)c(=O)n(-c3ccc4nn(C)cc4c3)nc12 [Example 181, 5-(cyclopropylmethyl)-4-(6-cyclopropylpyridin-3-yl)-N-methyl-2-(2-methyl-2H-indazol-5-yl)-3-oxo-3,5-dihydro-2H-pyrrolo[3,2-c]pyridazine-7-sulfonamide] | > 10 µM
Cn1cc2cc(-n3nc4ccn(CC5CC5)c4c(-c4cncc(Cl)c4)c3=O)ccc2n1 [Example 126, 4-(5-chloropyridin-3-yl)-5-(cyclopropylmethyl)-2-(2-methyl-2H-indazol-5-yl)-2,5-dihydro-3H-pyrrolo[3,2-c]pyridazin-3-one] | < 1 µM
CNS(=O)(=O)c1cn(CC2CC2)c2c(-c3ccc(C4CC4)cc3)c(=O)n(-c3ccc4nn(C)cc4c3)nc12 [Example 179, 5-(cyclopropylmethyl)-4-(4-cyclopropylphenyl)-N-methyl-2-(2-methyl-2H-indazol-5-yl)-3-oxo-3,5-dihydro-2H-pyrrolo[3,2-c]pyridazine-7-sulfonamide] | > 10 µM
CC(C)Cn1cc(C#N)c2nn(-c3ccc4nn(C)cc4c3)c(=O)c(-c3ccc(C4CC4)nc3)c21 [Example 121, 4-(6-cyclopropylpyridin-3-yl)-5-isobutyl-2-(2-methyl-2H-indazol-5-yl)-3-oxo-3,5-dihydro-2H-pyrrolo[3,2-c]pyridazine-7-carbonitrile] | < 1 µM
CC(C)n1cc(C#N)c2nn(-c3ccc4nn(C)cc4c3)c(=O)c(-c3ccc(C4CC4)nc3)c21 [Example 146, 4-(6-cyclopropylpyridin-3-yl)-5-isopropyl-2-(2-methyl-2H-indazol-5-yl)-3-oxo-3,5-dihydro-2H-pyrrolo[3,2-c]pyridazine-7-carbonitrile] | < 1 µM
CNS(=O)(=O)c1cn(CC2CC2)c2c(-c3ccc(OC(F)F)cc3)c(=O)n(-c3ccc4nn(C)cc4c3)nc12 [Example 183, 5-(cyclopropylmethyl)-4-(4-(difluoromethoxy)phenyl)-N-methyl-2-(2-methyl-2H-indazol-5-yl)-3-oxo-3,5-dihydro-2H-pyrrolo[3,2-c]pyridazine-7-sulfonamide] | > 10 µM
Cn1cc2cc(-n3nc4ccn(CC5CC5)c4c(-c4cncc(C(F)(F)F)c4)c3=O)ccc2n1 [Example 125, 5-(cyclopropylmethyl)-2-(2-methyl-2H-indazol-5-yl)-4-(5-(trifluoromethyl)pyridin-3-yl)-2,5-dihydro-3H-pyrrolo[3,2-c]pyridazin-3-one] | > 10 µM

Continued, values first:

IC50 | SMILES
> 10 µM | Cc1c(C#N)c2nn(-c3ccc4nn(C)cc4c3)c(=O)c(-c3ccc(C4CC4)nc3)c2n1CC1CC1 [Example 265, 5-(cyclopropylmethyl)-4-(6-cyclopropylpyridin-3-yl)-6-methyl-2-(2-methyl-2H-indazol-5-yl)-3-oxo-2H,3H,5H-pyrrolopyridazine-7-carbonitrile]
< 0.1 µM | Cn1cc2cc(-n3nc4c(c(CC5CC5)cn4C)c(-c4ccc(OC(F)F)cc4)c3=O)ccc2n1 [Example 272, 5-(cyclopropylmethyl)-4-(4-(difluoromethoxy)phenyl)-7-methyl-2-(2-methyl-2H-indazol-5-yl)-2,7-dihydro-3H-pyrrolo[2,3-c]pyridazin-3-one]
> 10 µM | Cc1ccc(-c2c(=O)n(-c3ccc4nn(C)cc4c3)nc3c(C#N)c(C)n(CC4CC4)c23)cn1 [Example 266, 5-(cyclopropylmethyl)-6-methyl-2-(2-methyl-2H-indazol-5-yl)-4-(6-methylpyridin-3-yl)-3-oxo-2H,3H,5H-pyrrolopyridazine-7-carbonitrile]
< 1 µM | Cn1cc2cc(-n3nc4c(S(C)(=O)=O)cn(CC5CC5)c4c(-c4ccc(C5CC5)nc4)c3=O)ccc2n1 [Example 261, 5-(cyclopropylmethyl)-4-(6-cyclopropylpyridin-3-yl)-2-(2-methyl-2H-indazol-5-yl)-7-(methylsulfonyl)-2,5-dihydro-3H-pyrrolo[3,2-c]pyridazin-3-one]
< 1 µM | Cn1cc2cc(-n3nc4c(S(C)(=O)=O)cn(CC5CC5)c4c(-c4ccc(C5CC5)cc4)c3=O)ccc2n1 [Example 262, 5-(cyclopropylmethyl)-4-(4-cyclopropylphenyl)-2-(2-methyl-2H-indazol-5-yl)-7-(methylsulfonyl)-2,5-dihydro-3H-pyrrolo[3,2-c]pyridazin-3-one]
> 10 µM | CN1CC=C(n2nc3ccn(CC4CC4)c3c(-c3ccc(C4CC4)nc3)c2=O)CC1 [Example 232, 5-(cyclopropylmethyl)-4-(6-cyclopropylpyridin-3-yl)-2-(1-methyl-1,2,3,6-tetrahydropyridin-4-yl)-2,5-dihydro-3H-pyrrolo[3,2-c]pyridazin-3-one]
